From patent publication US6482850B2, “Hydrolysis-promoting hydrophobic taxane derivatives” (priority 1995, dated 2002)

What was measured:
[1] = tested on: A-549 human lung carcinoma; assay: In vitro sensitivity, sulforhodamine B cytotoxicity assay, A-549 (Table 2); type: cell-based; conditions: Homo sapiens, A549; 72-hour incubation; averaged from two separate experiments
Experimental: Briefly, 96-well microtiter plates were inoculated (100 μL/well) with 5×10^3 (A549) or 7.5×10^3 (OVCAR-3) cells/well, in RPMI-1640 supplemented with 10% FBS (growth media). The plates were incubated for 24 hr at 37° C., 100% humidity and 5% CO2. At 24 hours, growth media (100 μL) was added to designated “time zero” plates. Similarly, serial dilutions of drug or vehicle (in media) were added (100 μL aliquots) to the test and vehicle control wells at twice the predetermined highest concentration. […] Cells (including time zero plates) were then fixed with 50 μL of 50% trichloroacetic acid (TCA) (w:v) for adherent cells or 80% TCA for suspended cells, and plates refrigerated at 4° C. for 1 hr. […] The plates were then air-dried for 24 hr.

[2] = In vivo toxicity, i.p. x 5, non-tumor bearing mice; conditions: CDF1, mouse, in vivo, ip; i.p. once daily for five consecutive days; read-out: maximum tolerated i.p. dose (MTD, highest dose with no deaths)
Experimental: (§1) A separate group (n=5) was injected with concentrations of Cremophor® EL and ethanol (in PBS) equivalent to the highest concentration of the test treatment. Mortality was recorded daily and body weights taken at least twice weekly for an observation period of 30 days.

CDF1 mice [3] = assay: In vivo toxicity, i.p. x 5, non-tumor bearing mice; conditions: 30 days observation
Experimental: as §1

[4] = tested on: MCF-7/ADR (adriamycin-resistant); assay: In vitro sensitivity, sulforhodamine B cytotoxicity assay, MCF-7/ADR (Table 2); type: cell-based, human; conditions: Homo sapiens, NCI/ADR-RES; 72-hour incubation; averaged from two separate experiments
[5] = tested on: OVCAR-3 human ovarian cancer; assay: i.p. OVCAR-3 tumor, i.p. treatment, survival
Experimental: C.B-17 SCID female mice were injected i.p. with 5×10^6 OVCAR-3 human ovarian cancer cells (day 0). […] Note that long-term survivors (mice that survived through day 300 after cell inoculation) were not included in mean, median, or % ILS calculations.

CDF1 mice [6] = assay: In vivo toxicity, i.v. x 5, non-tumor bearing mice; conditions: 30 days observation
Experimental: as §1

[7] = Pharmacokinetic, plasma levels after i.v. administration; conditions: 25 mg/kg i.v., CDF1 female mice, 8 hours
Experimental: (§2) Control mice received an equivalent concentration of Cremophor® EL and ethanol (in PBS) only. At 1, 4, 8, 24 or 48 hr after injection mice were sacrificed and blood was collected via heart puncture into 1 cc syringes containing 0.05 mL of a 0.129M Sodium citrate solution (Baxter, N.J.). Samples were centrifuged at 10,000 ×g for 3 min and plasma removed. Extraction of test materials from plasma was done by adding an equal volume of acetonitrile containing 2C12-HT, 50 μg/ml, as an internal standard, and vortexing vigorously for 30 sec. Samples were then centrifuged for 3 min at 10,000 ×g and supernatant and drug levels determined via HPLC as described previously.

CDF1 female mice = assay: Acute toxicity of liposomal paclitaxel or paclitaxel derivative given intraperitoneally; conditions: liposomes, i.p.
Experimental: Moreover, liposomes containing either paclitaxel or a 2′-(2-bromo) hydrophobic paclitaxel derivative (containing either a six-carbon (C-6), C-8, C-12, C-14 or C-16 acyl chain at the 2′ position) were administered, intraperitoneally in 5 doses, to SCID (severe combined inimunodeficiency) mice bearing a human ovarian cancer (OvCar 3), at a dose of 12.5 mg paclitaxel per kg or a dose of 50 mg paclitaxel derivative per kg.
CDF1 female mice, 5 or 10 mice per group, were intraperitoneally administered either paclitaxel-, 2′-C6-paclitaxel derivative-, or 2′-C16-paclitaxel derivative-containing liposomes, in a single dose, or 5 doses, of either 12.5, 25, 50, 100, 200, 300. 400 or 500 mg of paclitaxel or paclitaxel derivative per kg of mouse body weight.

[8] = tested on: MCF-7 human breast carcinoma; assay: In vitro sensitivity, sulforhodamine B cytotoxicity assay, MCF-7 (Table 2); type: cell-based; conditions: Homo sapiens, MCF7; 72-hour incubation; averaged from two separate experiments
in vivo = conditions: female, CDF1, mouse, plasma, intravenous, 25 mg/kg
Experimental: as §2

A549 human NSCLC = assay: i.p. A549 tumor, i.p. treatment, survival; conditions: i.p. on days 1, 3, 5, 7 & 9
Experimental: Note that long-term survivors (mice that survived through day 300 after cell inoculation) were not included in mean, median, or % ILS calculations.
SCID mice (6/group) were injected with 5×10^6 A549 human NSCLC cells i.p. (day 0).

A549 human lung cancer = assay: s.c. A549 tumor, i.v. treatment, tumor volume (FIG. 8); type: in vivo, mice; conditions: i.v., independent of the dose schedule; BrC16HT 12.5-25 mg/kg, Taxol® 25 mg/kg
Excerpt: Mice were sacrificed when the average tumor volume of the group reached 1500 mm^3.

[9] = tested on: OVCAR-3 human ovarian cancer; assay: i.p. OVCAR-3 tumor, i.v. treatment, survival (FIG. 6); type: in vivo, mice
Experimental: Mice were observed daily for mortality and % ILS was calculated as described above.

A549 cancer cells = assay: cells; conditions: Homo sapiens, A549, 72 h, read-out: GI50 ± S.D. A549
Experimental: Briefly, 96-well microtiter plates were inoculated (100 μL/well) with 5×10^3 (A549) or 7.5×10^3 (OVCAR-3) cells/well, in RPMI-1640 supplemented with 10% FBS (growth media). The plates were incubated for 24 hr at 37° C., 100% humidity and 5% CO2. At 24 hours, growth media (100 μL) was added to designated “time zero” plates. Similarly, serial dilutions of drug or vehicle (in media) were added (100 μL aliquots) to the test and vehicle control wells at twice the predetermined highest concentration. There were triplicate wells on each plate and duplicate plates (total 6 wells) for each drug concentration. The test plates were incubated as above for 72 hr. Cells (including time zero plates) were then fixed with 50 μL of 50% trichloroacetic acid (TCA) (w:v) for adherent cells or 80% TCA for suspended cells, and plates refrigerated at 4° C. for 1 hr. The supernatant was discarded (suspended cell plates were first centrifuged) and the wells rinsed six times with tap water and air-dried. One hundred microliters of 0.4% SRB in 1% acetic acid were added to each well and the plates were incubated under ambient (RT) conditions for 10 min. Unbound stain was removed by rinsing the wells three times with 1% acetic acid. The plates were then air-dried for 24 hr. The bound stain was solubilized with 100 μL of 10 mM Tris buffer and the optical density was read spectrophotometrically at 490 nm (Microplate Reader Model 3550-UV, Bio-Rad, Hercules, Calif.). Percent growth was calculated as follows: (T-T0) / (C-T0)×100; where (T)=mean optical density of treated wells at a given drug concentration, (T0)=mean optical density of time zero wells, and (C)=mean optical density of control wells.

OVCAR-3 cancer cells = assay: cells; conditions: Homo sapiens, OVCAR-3, 72 h, read-out: GI50 ± S.D. OVCAR-3
Experimental: Briefly, 96-well microtiter plates were inoculated (100 μL/well) with 5×10^3 (A549) or 7.5×10^3 (OVCAR-3) cells/well, in RPMI-1640 supplemented with 10% FBS (growth media). The plates were incubated for 24 hr at 37° C., 100% humidity and 5% CO2. At 24 hours, growth media (100 μL) was added to designated “time zero” plates. Similarly, serial dilutions of drug or vehicle (in media) were added (100 μL aliquots) to the test and vehicle control wells at twice the predetermined highest concentration. There were triplicate wells on each plate and duplicate plates (total 6 wells) for each drug concentration. The test plates were incubated as above for 72 hr. Cells (including time zero plates) were then fixed with 50 μL of 50% trichloroacetic acid (TCA) (w:v) for adherent cells or 80% TCA for suspended cells, and plates refrigerated at 4° C. for 1 hr. […] The bound stain was solubilized with 100 μL of 10 mM Tris buffer and the optical density was read spectrophotometrically at 490 nm (Microplate Reader Model 3550-UV, Bio-Rad, Hercules, Calif.). Percent growth was calculated as follows: (T-T0) / (C-T0)×100; where (T)=mean optical density of treated wells at a given drug concentration, (T0)=mean optical density of time zero wells, and (C)=mean optical density of control wells.

[10] = High sensitivity differential scanning calorimetry on phosphocholine bilayers; type: physicochemical; conditions: DMPC, DPPC and DSPC bilayers, as high as 9.1 mol % (Lipid/Drug, 10:1)
Excerpt: High sensitivity differential scanning calorimetry (DSC) was used to examine the effect of addition of taxol and its acylated derivatives on the thermotropic phase properties of phosphocholine bilayers of saturated 1, 2-dimyristoyl-sn-glycero-3-phosphocholines (DMPC), 1,2-dipalmitoyl-sn-glycero-3-phosphocholines (DPPC), and 1,2-distearoyl-sn-glycero-3-phosphocholines (DSPC). Likewise, three acylated taxol prodrugs were varied in chain lengths from six, twelve, to sixteen carbons.

[11] = tested on: OVCAR-3 human ovarian cancer; assay: s.c. OVCAR-3 tumor, i.v. treatment, tumor volume (FIG. 7); type: in vivo, mice
Experimental: OVCAR-3 human ovarian cancer.
The tumor volume (mm^3) from tumor measurement was calculated: (Length * (Width/2)^2 * π). Mice were sacrificed when the average tumor volume of the group reached 1500 mm^3.

[12] = tested on: HT-29 human colon carcinoma cells; assay: In vitro sensitivity, sulforhodamine B cytotoxicity assay, HT-29 (Table 2); type: cell-based; conditions: Homo sapiens, HT-29; 72-hour incubation; averaged from two separate experiments
[13] = treated days 20, 22, 24, 26 and 28 i.p., 25 mg/kg
[14] = treated days 20, 22, 24, 26 and 28 i.p., 25 mg/kg, long-term survivors not included

SMILES: CC(=O)O[C@H]1C(=O)[C@@]2(C)[C@H]([C@H](OC(=O)c3ccccc3)[C@]3(O)C[C@H](OC(=O)[C@H](O)[C@@H](NC(=O)c4ccccc4)c4ccccc4)C(C)=C1C3(C)C)[C@]1(OC(C)=O)CO[C@@H]1C[C@@H]2O [Paclitaxel, reference compound]
- GI50 [1]: 2.3 nM
- MTD at 5 days [2]: 12.5 to 25 mg/kg
- Number of Mice surviving/Total (CDF1 mice [3]; i.p. days 1 through 5, 12.5 mg/kg): 20/20
- Number of Mice surviving/Total (CDF1 mice [3]; i.p. days 1 through 5, 25 mg/kg): 10/20
- Number of Mice surviving/Total (CDF1 mice [3]; i.p. days 1 through 5, 37.5 mg/kg): 0/10
- Number of Mice surviving/Total (CDF1 mice [3]; i.p. days 1 through 5, 50 mg/kg): 0/25
- GI50 [4]: 4170 nM
- long-term survivors (LTS), in words ([5]; delayed i.p. schedule (Table 9b)): no long-term survivors were observed
- survival of tumor-bearing mice vs. control ([5]; early (days 1, 3, 5, 7 & 9) and delayed (days 20, 22, 24, 26 & 28) i.p. treatment schedules): significantly prolonged (p<0.05 vs. control) the survival
- % ILS [5, 13]: 84%
- LTS/n (mice that survived to 300 days) [5, 13]: 0/10
- MST Days ± SEM (n) [5, 14]: 188 ± 15 (10) Days
- Median survival time [5, 14]: 185 days
- Number of Mice surviving/Total (CDF1 mice [6]; i.v. days 1 through 5, 12.5 mg/kg): 10/10
- Number of Mice surviving/Total (CDF1 mice [6]; i.v. days 1 through 5, 25 mg/kg): 8/10
- Number of Mice surviving/Total (CDF1 mice [6]; i.v. days 1 through 5, 37.5 mg/kg): 0/7
- Number of Mice surviving/Total (CDF1 mice [6]; i.v. days 1 through 5, 50 mg/kg): 0/8
- Plasma level of paclitaxel ± SEM [7]: none detectable
- number of mice that died within the first 14 days post-injection/total (CDF1 female mice; five doses of 12.5 mg/kg): 0/10
- number of mice that died within the first 14 days post-injection/total (CDF1 female mice; five doses of 25 mg/kg): 10/10
- number of mice that died within the first 14 days post-injection/total (CDF1 female mice; five doses of 50 mg/kg): 10/10
- number of mice that died within the first 14 days post-injection/total (CDF1 female mice; single dose 12.5 mg/kg): 0/10
- number of mice that died within the first 14 days post-injection/total (CDF1 female mice; single dose 25 mg/kg): 0/10
- number of mice that died within the first 14 days post-injection/total (CDF1 female mice; single dose 50 mg/kg): 0/10
- number of mice that died within the first 14 days post-injection/total (CDF1 female mice; single dose 100 mg/kg, 100 mg/kg): 5/5
- number of mice that died within the first 14 days post-injection/total (CDF1 female mice; single dose 100 mg/kg, listed as paclitaxel, 100 mg/kg): all five of the mice
- GI50 [8]: < 1.5 nM
- concentration at 1 h (in vivo): 14400 ± 4600 ng/mL
- concentration at 4 h (in vivo): < 5000 ng/mL
- survival time of tumor-bearing mice vs. control (A549 human NSCLC): significantly (p<0.05 vs. control) increased the survival time
- tumor growth vs. control (A549 human lung cancer): significantly (p <0.05 vs. control) inhibited the tumor growth
- medium survival times ([9]; 12.5 mg/kg i.v. on days 20, 22, 24, 26 & 28): 170 days
- survival time vs. control ([9]; 12.5 or 25 mg/kg i.v. on days 1, 3, 5, 7, 9, 42, 44, 46, 48 & 50 (FIG. 6a)): significantly (p<0.05 vs. control) increased the survival time
- survival time vs. control ([9]; i.v. on days 20, 22, 24, 26 & 28, BrC16HT 12.5 or 25 mg/kg, Taxol® 12.5 mg/kg (FIG. 6b)): significantly (p<0.05 vs. control) increased the survival time
- GI50 (A549 cancer cells): 3.3 ± 0.8 nM
- GI50 (OVCAR-3 cancer cells): 1.9 ± 0.03 nM
- perturbation of PC bilayers (DSC) [10]: little or no effect on the perturbation of all three PC bilayers
- delaying tumor growth ([11]; 25 mg/kg i.v. on days 1, 3, 5, 7 & 9): ~59 days
- tumor growth vs. control ([11]; i.v. on days 1, 3, 5, 7 & 9, BrC16HT 12.5-25 mg/kg, Taxol® 25 mg/kg): significantly (p<0.05 vs. control) inhibited the tumor growth
- GI50 [12]: < 1.4 nM
